Here are results for two molecules from patent publication US9074289B2, “Environmentally friendly corrosion inhibitor” (NALCO COMPANY, priority 2011, dated 2015).

For one data set, the system named is Skeletonema costatum. Briefly: Acute aquatic toxicity, ISO 10253. The data set is classed as in vivo. Particulars: Hec50, 72 h, Method: ISO 10253. As to the method:
(§1) (i) acute toxicity to the most sensitive marine species (skeletonema costatum) must be greater than EC50 of 10 mg/L; (ii) bioaccumulation potential (as indicated by Log Pow, the octanol-water partition coefficient) must be below 3 or the molecular weight must be greater than 700; and (iii) biodegradation in 28 days is greater than 60%. Corrosion inhibitor intermediates such as the quaternary ammonium salt were tested for their level of acute aquatic toxicity (Table 9), Log Pow (Table 10), and their ability to biodegrade in 28 days (Table 10).

A short description of data set [1]: Log Pow (octanol-water partition coefficient), OECD 117. The data set is classed as physicochemical. Particulars: n-octanol/water; Method: OECD 117.
From the text: The bioaccumulation potential of chemical substances has generally been determined from the n-octanol/water partition coefficient (expressed as log Pow) and the bioconcentration factor. The log Pow represents the ratio of a material that dissolves or disperses in octanol (the oil phase) versus water. This coefficient is used as a chemical surrogate for bioaccumulative potential. A log Pow of less than ten is preferred, a log Pow of less than six is more preferred, and a log Pow of less than three is most preferred.
as §1

Another data set deals with Corophium volutator. Briefly: Acute aquatic toxicity, PARCOM. The data set is classed as in vivo. Particulars: Method: PARCOM. As to the method:
as §1

Data set [2] can be described thus: Acute aquatic toxicity, ISO 146669. Particulars: Acartia tonsa, in vivo, Method: ISO 146669. As to the method:
as §1

Data set [3] in a line: Biodegradation in 28 days, Marine BODIS. Particulars: Method: Marine BODIS.
From the text: Biodegradation is the chemical breakdown of a material by microorganisms into nutrients that can be used by other organisms. Generally, a complex molecule can be broken down into carbon dioxide, water, microbial biomass, and/or inorganic salts. A biodegradation of 10% or greater is preferred, biodegradation of 20% or greater is more preferred, and a biodegradation of 60% or greater is most preferred.
as §1

In the data set with Skeletonema costatum, `CCOC(=O)c1cc[n+](Cc2cccc3ccccc23)cc1.[Cl-]` [Compound 1] showed an EC50 greater than 10 µg/mL. For the same molecule, the chromatographic logP in data set [1] is 2.7.

`NC(=O)c1ccc[n+](Cc2cccc3ccccc23)c1.[Cl-]` [Compound 4]: in the data set on Corophium volutator, the “Corophium volutator 10 d LC50” value was determined as 6116.15 mg/kg. In data set [1], this molecule returned a chromatographic logP of 2.1. Also, in data set [2], the LC50 at 48 h is 105 µg/mL. In addition, the “Biodegradation (28 days)” value in data set [3] amounted to 40%^7.

As a reminder, the EC50 is the concentration that produces a half-maximal response. Read a high EC50 as a less potent agent. Broadly, the chromatographic logP is a lipophilicity value derived from retention on a column. Usually LC50 stands for the concentration lethal to half of the exposed cells or organisms.
